Test results from patent publication US20230126893A1, “[(1,4,5-TRISUBSTITUTED-1H-PYRAZOL-3-YL)SULFANYL]ACETIC ACID DERIVATIVES, SALTS THEREOF, AND USE THEREOF AS ACTIVE HERBICIDAL INGREDIENTS” (BAYER AKTIENGESELLSCHAFT, priority 2020, published 2023).

Tests used:
Format in all cases: in vivo
Amaranthus retroflexus [1] = test: Post-emergence herbicidal effect against AMARE; details: 1280 g/ha, visual assessment about 3 weeks after treatment, 100% = plants have died, 0% = like control plants
Method: [table] 2. Post-emergence herbicidal effect and crop plant compatibility Seeds of monocotyledonous and dicotyledonous weed and crop plants are laid out in sandy loam soil in wood-fibre pots, covered with soil and cultivated in a greenhouse under good growth conditions. 2 to 3 weeks after sowing, the test plants are treated at the one-leaf stage. The compounds of the invention, formulated in the form of wettable powders (WP) or as emulsion concentrates (EC), are then sprayed onto the green parts of the plants as aqueous suspension or emulsion at a water application rate equating to 600 to 800 l/ha with addition of 0.2% wetting agent. After the test plants have been left to stand in the greenhouse under optimal growth conditions for about 3 weeks, the action of the preparations is assessed visually in comparison to untreated controls (herbicidal action in percent (%): 100% activity=the plants have died, 0% activity=like control plants).

Digitaria sanguinalis [2] = test: Post-emergence herbicidal effect against DIGSA; details: 1280 g/ha, visual score after about 3 weeks, 100% = plants have died, 0% = like control plants
How it was run: (§1)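 Plants grown in sandy loam soil in a greenhouse were treated at the one-leaf stage, 2 to 3 weeks after sowing, with WP or EC formulations sprayed on green parts at 600 to 800 l/ha water plus 0.2% wetting agent. Visual % damage versus untreated controls was scored after about 3 weeks.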

Veronica persica [3] = test: Pre-emergence herbicidal effect against VERPE; details: 1280 g/ha, visual score after 3 weeks, 100% = plants have died, 0% = like control plants
How it was run: (§2)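 Seeds sown in sandy loam and covered with soil; compounds formulated as WP or EC were sprayed onto the soil surface as aqueous suspension/emulsion at 600 to 800 L/ha water with 0.2% wetting agent. Pots kept in greenhouse; damage scored visually after 3 weeks versus untreated controls (0–100%).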

Setaria viridis [4] = test: Post-emergence herbicidal effect against SETVI; details: 1280 g/ha, visual assessment about 3 weeks after treatment, 100% = plants have died, 0% = like control plants
How it was run: as §1

Poa annua [5] = test: Post-emergence herbicidal effect against POAAN; details: 1280 g/ha, visual assessment about 3 weeks after treatment, 100% = plants have died, 0% = like control plants
How it was run: as §1

Echinochloa crus-galli [6] = test: Post-emergence herbicidal effect against ECHCG; details: 1280 g/ha, visual score after about 3 weeks, 100% = plants have died, 0% = like control plants
How it was run: as §1

Bassia scoparia [7] = test: Post-emergence herbicidal effect against KCHSC; details: 1280 g/ha, visual assessment about 3 weeks after treatment, 100% = plants have died, 0% = like control plants
How it was run: as §1

Alopecurus myosuroides [8] = test: Pre-emergence herbicidal effect against ALOMY; details: 1280 g/ha, visual score after 3 weeks, 100% = plants have died, 0% = like control plants
How it was run: as §2

Veronica persica [9] = test: Post-emergence herbicidal effect against VERPE; details: 1280 g/ha, visual assessment about 3 weeks after treatment, 100% = plants have died, 0% = like control plants
How it was run: as §1

Amaranthus retroflexus [10] = test: Pre-emergence herbicidal effect against AMARE; details: 1280 g/ha, visual score after 3 weeks, 100% = plants have died, 0% = like control plants
Description: (§3) 1. Pre-emergence herbicidal effect and crop plant compatibility Seeds of monocotyledonous and dicotyledonous weed plants and crop plants are laid out in sandy loam soil in wood-fibre pots and covered with soil. The compounds of the invention, formulated in the form of wettable powders (WP) or as emulsion concentrates (EC), are then applied to the surface of the covering soil as aqueous suspension or emulsion at a water application rate equating to 600 to 800 L/ha with addition of 0.2% wetting agent. After the treatment, the pots are placed in a greenhouse and kept under good growth conditions for the trial plants. The damage to the test plants is scored visually after a test period of 3 weeks by comparison with untreated controls (herbicidal activity in percent (%): 100% activity=the plants have died, 0% activity=like control plants). [table]

Setaria viridis [11] = test: Pre-emergence herbicidal effect against SETVI; details: 1280 g/ha, visual score after 3 weeks, 100% = plants have died, 0% = like control plants
How it was run: as §2

Poa annua [12] = test: Pre-emergence herbicidal effect against POAAN; details: 1280 g/ha, visual score after 3 weeks, 100% = plants have died, 0% = like control plants
How it was run: as §2

Alopecurus myosuroides [13] = test: Post-emergence herbicidal effect against ALOMY; details: 1280 g/ha, visual score after about 3 weeks, 100% = plants have died, 0% = like control plants
How it was run: as §1

Digitaria sanguinalis [14] = test: Pre-emergence herbicidal effect against DIGSA; details: 1280 g/ha, visual score after 3 weeks, 100% = plants have died, 0% = like control plants
How it was run: as §2

Stellaria media [15] = test: Pre-emergence herbicidal effect against STEME; details: 1280 g/ha, visual score after 3 weeks, 100% = plants have died, 0% = like control plants
How it was run: as §2

Stellaria media [16] = test: Post-emergence herbicidal effect against STEME; details: 1280 g/ha, visual assessment about 3 weeks after treatment, 100% = plants have died, 0% = like control plants
How it was run: as §1

Abutylon threophrasti [17] = test: Post-emergence herbicidal effect against ABUTH; details: 1280 g/ha, visual assessment about 3 weeks after treatment, 100% = plants have died, 0% = like control plants
How it was run: as §1

[18] = system: Tripleurospermum inodorum; test: Pre-emergence herbicidal effect against MATIN; details: 1280 g/ha, visual score after 3 weeks, 100% = plants have died, 0% = like control plants
How it was run: as §2

[19] = system: Tripleurospermum inodorum; test: Post-emergence herbicidal effect against MATIN; details: 1280 g/ha, visual assessment about 3 weeks after treatment, 100% = plants have died, 0% = like control plants
How it was run: as §1

Lolium rigidum = test: Pre-emergence herbicidal effect against LOLRI; details: 1280 g/ha, visual score after 3 weeks, 100% = plants have died, 0% = like control plants
How it was run: as §2

Bassia scoparia [20] = test: Pre-emergence herbicidal effect against KCHSC; details: 1280 g/ha, visual score after 3 weeks, 100% = plants have died, 0% = like control plants
Description: as §3

Echinochloa crus-galli [21] = test: Pre-emergence herbicidal effect against ECHCG; details: 1280 g/ha, visual score after 3 weeks, 100% = plants have died, 0% = like control plants
How it was run: as §2

Abutylon threophrasti [22] = test: Pre-emergence herbicidal effect against ABUTH; details: 1280 g/ha, visual score after 3 weeks, 100% = plants have died, 0% = like control plants
Description: as §3

SMILES	Post-emergence action against DIGSA (Digitaria sanguinalis [2]) [%]	Pre-emergence action against VERPE (Veronica persica [3]) [%]	Post-emergence action against SETVI (Setaria viridis [4]) [%]	Post-emergence action against POAAN (Poa annua [5]) [%]	Post-emergence action against ECHCG (Echinochloa crus-galli [6]) [%]	Post-emergence action against KCHSC (Bassia scoparia [7]) [%]	Pre-emergence action against ALOMY (Alopecurus myosuroides [8]) [%]	Post-emergence action against VERPE (Veronica persica [9]) [%]	Pre-emergence action against SETVI (Setaria viridis [11]) [%]	Pre-emergence action against POAAN (Poa annua [12]) [%]	Post-emergence action against ALOMY (Alopecurus myosuroides [13]) [%]	Pre-emergence action against DIGSA (Digitaria sanguinalis [14]) [%]	Pre-emergence action against STEME (Stellaria media [15]) [%]	Post-emergence action against STEME (Stellaria media [16]) [%]	Post-emergence action against ABUTH (Abutylon threophrasti [17]) [%]	Pre-emergence action against MATIN [18] [%]	Post-emergence action against MATIN [19] [%]	Pre-emergence action against LOLRI (Lolium rigidum) [%]	Pre-emergence action against KCHSC (Bassia scoparia [20]) [%]	Pre-emergence action against ECHCG (Echinochloa crus-galli [21]) [%]	also measured
CCOC(=O)CSc1nn(-c2ccccc2F)c(-c2ccc(F)c(F)c2)c1Cl [Example I-001]	100	100	90	100	100	90	100	100	100	100	100	100	100	100	90	90	100	100	–	–	Post-emergence action against AMARE (Amaranthus retroflexus [1]): 90%; Pre-emergence action against AMARE (Amaranthus retroflexus [10]): 100%
CCOC(=O)CSc1nn(-c2cc(F)ccc2F)c(-c2ccc(F)c(F)c2)c1Br [Example I-013]	100	100	–	100	–	90	100	100	100	100	100	100	100	100	90	100	100	100	90	100	Post-emergence action against AMARE (Amaranthus retroflexus [1]): 100%; Pre-emergence action against AMARE (Amaranthus retroflexus [10]): 100%
CCOC(=O)C(C)Sc1nn(-c2ccccc2F)c(-c2ccc(F)c(F)c2)c1Br (stereo not drawn) [Example I-015]	–	100	–	100	100	90	100	100	100	100	100	100	100	–	90	100	–	100	100	100	–
CCOC(=O)CSc1nn(-c2ccc(F)cc2F)c(-c2ccc(F)cc2)c1Br [Example I-016]	90	100	–	90	90	90	90	90	100	100	100	100	100	90	–	100	90	90	100	100	–
CCOC(=O)CSc1nn(-c2ccc(F)cc2)c(-c2ccc(F)cc2)c1Br [Example I-019]	100	100	90	100	–	100	90	100	100	100	100	100	90	90	100	100	100	–	100	100	Pre-emergence action against ABUTH (Abutylon threophrasti [22]): 90%
CCOC(=O)C[S+]([O-])c1nn(-c2ccccc2F)c(-c2cncc(Cl)c2)c1Br (stereo not drawn) [II-013]	–	100	90	100	100	90	100	100	100	100	–	100	100	100	100	100	100	100	90	100	Post-emergence action against AMARE (Amaranthus retroflexus [1]): 90%; Pre-emergence action against AMARE (Amaranthus retroflexus [10]): 100%; Pre-emergence action against ABUTH (Abutylon threophrasti [22]): 90%
COC(=O)CN(C)C(=O)CSc1nn(-c2ccccc2F)c(-c2ccc(F)c(F)c2)c1Cl [VII-002]	–	90	90	100	–	–	–	90	100	–	–	–	100	90	–	–	90	–	90	100	–
COC(=O)CNC(=O)CSc1nn(-c2ccccc2F)c(-c2cccnc2)c1Br [VII-007]	–	90	90	90	90	90	90	90	100	100	90	–	90	90	90	90	90	–	90	100	–
COC(=O)CNC(=O)CSc1nn(-c2ccccc2F)c(-c2cncc(F)c2)c1Br [VII-009]	–	100	90	100	90	90	90	90	100	100	90	–	100	100	90	100	90	100	–	90	Pre-emergence action against ABUTH (Abutylon threophrasti [22]): 90%
